Laboratory results taken from paper PMC5218480 (PLoS ONE, 2017).

Test system: MV-4-11 cells
Test: Gene expression microarray analysis (Affymetrix PrimeView) and GSEA
Format: cell-based, human
Set-up: RFU PODN (11730768_x_at) / Fold change /veh PODN (11730768_x_at) / RFU LINC00158 (11744669_a_at) / Fold change /veh LINC00158 (11744669_a_at) / RFU DUSP10 (11751237_a_at) / Fold change /veh DUSP10 (11751237_a_at) / RFU ID3 (11757404_x_at) / Fold change /veh ID3 (11757404_x_at) / RFU PLEKHG5 (11737974_s_at) / Fold change /veh PLEKHG5 (11737974_s_at) / RFU LRRC4B (11730491_at) / Fold change /veh LRRC4B (11730491_at) / RFU GIMAP4 (11747438_a_at) / Fold change /veh GIMAP4 (11747438_a_at) / RFU KRT8 (11758183_x_at) / Fold change /veh KRT8 (11758183_x_at) / RFU CNN1 (11734310_a_at) / Fold change /veh CNN1 (11734310_a_at) / RFU VPS37D (11726825_at) / Fold change /veh VPS37D (11726825_at) / RFU C10orf10 (11716522_x_at) / Fold change /veh C10orf10 (11716522_x_at) / RFU KIR2DL2 /// KIR2DL4 /// KIR2DL5A /// KIR2DL5B /// KIR2DS1 /// KIR2DS2 /// KIR2DS3 /// KIR2DS4 /// KIR3DL3 /// KIR3DL3 /// KIR3DS1 (11738374_at) / Fold change /veh KIR2DL2 /// KIR2DL4 /// KIR2DL5A /// KIR2DL5B /// KIR2DS1 /// KIR2DS2 /// KIR2DS3 /// KIR2DS4 /// KIR3DL3 /// KIR3DL3 /// KIR3DS1 (11738374_at) / RFU C1QL1 (11718748_at) / Fold change /veh C1QL1 (11718748_at) / RFU TMPRSS4 (11747572_a_at) / Fold change /veh TMPRSS4 (11747572_a_at) / RFU HAMP (11756126_x_at) / Fold change /veh HAMP (11756126_x_at) / RFU RNFT2 (11725882_a_at) / Fold change /veh RNFT2 (11725882_a_at) / RFU NR4A2 (11747474_a_at) / Fold change /veh NR4A2 (11747474_a_at) / RFU ABCC12 (11746883_a_at) / Fold change /veh ABCC12 (11746883_a_at) / RFU TMEM136 (11760407_x_at) / Fold change /veh TMEM136 (11760407_x_at) / RFU CLDN22 /// WWC2 (11732394_at) / Fold change /veh CLDN22 /// WWC2 (11732394_at) / RFU HLA-DPB1 (11760878_x_at) / Fold change /veh HLA-DPB1 (11760878_x_at) / RFU SPINT1 (11716480_a_at) / Fold change /veh SPINT1 (11716480_a_at) / RFU GAP43 (11754022_s_at) / Fold change /veh GAP43 (11754022_s_at) / RFU A4GNT (11735810_at) / Fold change /veh A4GNT (11735810_at) / RFU PRB3 (11715151_x_at) / Fold change /veh PRB3 (11715151_x_at) / RFU TUBB4B (11761932_at) / Fold change /veh TUBB4B (11761932_at) / RFU CAPN14 (11732068_a_at) / Fold change /veh CAPN14 (11732068_a_at) / RFU TMCC2 (11721928_a_at) / Fold change /veh TMCC2 (11721928_a_at) / RFU IRGQ (11745062_a_at) / Fold change /veh IRGQ (11745062_a_at) / RFU FAM174B (11720279_a_at) / Fold change /veh FAM174B (11720279_a_at) / RFU TMPRSS4 (11748680_a_at) / Fold change /veh TMPRSS4 (11748680_a_at) / RFU FAM212B (11763350_a_at) / Fold change /veh FAM212B (11763350_a_at) / RFU PLEKHG5 (11743358_a_at) / Fold change /veh PLEKHG5 (11743358_a_at) / RFU ZSCAN30 (11745921_a_at) / Fold change /veh ZSCAN30 (11745921_a_at) / RFU CMKLR1 (11741424_a_at) / Fold change /veh CMKLR1 (11741424_a_at) / RFU LOC101060620 /// MAPK8IP1 (11723275_at) / Fold change /veh LOC101060620 /// MAPK8IP1 (11723275_at) / RFU SPTSSB (11747773_x_at) / Fold change /veh SPTSSB (11747773_x_at) / RFU PRSS12 (11739890_at) / Fold change /veh PRSS12 (11739890_at) / RFU BIN1 (11741810_x_at) / Fold change /veh BIN1 (11741810_x_at) / RFU WNT11 (11732464_a_at) / Fold change /veh WNT11 (11732464_a_at) / RFU C10orf10 (11716521_a_at) / Fold change /veh C10orf10 (11716521_a_at) / RFU C5orf56 (11738089_at) / Fold change /veh C5orf56 (11738089_at) / RFU CYB561 (11721691_x_at) / Fold change /veh CYB561 (11721691_x_at) / RFU ANKRD19P (11752326_a_at) / Fold change /veh ANKRD19P (11752326_a_at) / RFU OR2T12 /// OR2T33 /// OR2T8 (11738714_s_at) / Fold change /veh OR2T12 /// OR2T33 /// OR2T8 (11738714_s_at) / RFU VCAN (11748164_a_at) / Fold change /veh VCAN (11748164_a_at) / RFU JSRP1 (11732532_at) / Fold change /veh JSRP1 (11732532_at) / RFU KRTAP10-11 (11738290_x_at) / Fold change /veh KRTAP10-11 (11738290_x_at) / RFU MYO3A (11730013_a_at) / Fold change /veh MYO3A (11730013_a_at) / RFU EBF3 (11725865_a_at) / Fold change /veh EBF3 (11725865_a_at) / RFU CAMK2N1 (11719241_x_at) / Fold change /veh CAMK2N1 (11719241_x_at) / RFU C5orf56 (11738088_a_at) / Fold change /veh C5orf56 (11738088_a_at) / RFU OLFML3 (11715873_a_at) / Fold change /veh OLFML3 (11715873_a_at) / RFU LOC100653217 /// NTM (11731650_a_at) / Fold change /veh LOC100653217 /// NTM (11731650_a_at) / RFU MAPK11 (11762145_a_at) / Fold change /veh MAPK11 (11762145_a_at) / RFU FIZ1 (11724087_x_at) / Fold change /veh FIZ1 (11724087_x_at) / RFU OASL (11726364_x_at) / Fold change /veh OASL (11726364_x_at) / RFU SOX15 (11748057_x_at) / Fold change /veh SOX15 (11748057_x_at) / RFU CD79A (11719716_a_at) / Fold change /veh CD79A (11719716_a_at) / RFU HIST1H1D (11736915_at) / Fold change /veh HIST1H1D (11736915_at) / RFU CASKIN2 (11723855_a_at) / Fold change /veh CASKIN2 (11723855_a_at) / RFU LOC730098 (11760151_x_at) / Fold change /veh LOC730098 (11760151_x_at) / RFU OR4N2 (11742367_at) / Fold change /veh OR4N2 (11742367_at) / RFU PRRT2 (11749266_a_at) / Fold change /veh PRRT2 (11749266_a_at) / RFU SNX32 (11753110_a_at) / Fold change /veh SNX32 (11753110_a_at) / RFU CDHR5 (11726645_a_at) / Fold change /veh CDHR5 (11726645_a_at) / RFU RCAN1 (11760418_a_at) / Fold change /veh RCAN1 (11760418_a_at) / RFU FAM167A (11723789_a_at) / Fold change /veh FAM167A (11723789_a_at) / RFU FAM26E (11764081_at) / Fold change /veh FAM26E (11764081_at) / RFU ISYNA1 (11749810_s_at) / Fold change /veh ISYNA1 (11749810_s_at) / RFU ACY1 (11761880_at) / Fold change /veh ACY1 (11761880_at) / RFU 11764098_at / Fold change /veh 11764098_at / RFU SAMD14 (11745864_x_at) / Fold change /veh SAMD14 (11745864_x_at) / RFU NPB (11741838_a_at) / Fold change /veh NPB (11741838_a_at) / RFU TMPRSS6 (11731388_a_at) / Fold change /veh TMPRSS6 (11731388_a_at) / RFU KRTAP10-2 (11738614_at) / Fold change /veh KRTAP10-2 (11738614_at) / RFU ARHGAP8 /// PRR5-ARHGAP8 (11727945_x_at) / Fold change /veh ARHGAP8 /// PRR5-ARHGAP8 (11727945_x_at) / RFU KRTAP5-7 /// NADSYN1 (11734609_at) / Fold change /veh KRTAP5-7 /// NADSYN1 (11734609_at) / RFU RASL12 (11751679_a_at) / Fold change /veh RASL12 (11751679_a_at) / RFU CDKN2B (11736163_a_at) / Fold change /veh CDKN2B (11736163_a_at) / RFU PRF1 (11729649_at) / Fold change /veh PRF1 (11729649_at) / RFU, ZNF638 /// ZNF638-IT1 / Fold change vs veh, ZNF638 /// ZNF638-IT1 / RFU, PANK3 / Fold change vs veh, PANK3 / RFU, SH3YL1 / Fold change vs veh, SH3YL1 / RFU, ZEB2 / Fold change vs veh, ZEB2 / RFU, NRIP1 / Fold change vs veh, NRIP1 / RFU, PTTG1IP / Fold change vs veh, PTTG1IP / RFU, CAPN2 / Fold change vs veh, CAPN2 / RFU, MED14 / Fold change vs veh, MED14 / RFU, SNORA58 / Fold change vs veh, SNORA58 / RFU, C1orf63 / Fold change vs veh, C1orf63 / RFU, LRRFIP1 / Fold change vs veh, LRRFIP1 / RFU, NDUFAF7 / Fold change vs veh, NDUFAF7 / RFU, SLC12A2 / Fold change vs veh, SLC12A2 / RFU, IBTK / Fold change vs veh, IBTK / RFU, ESF1 / Fold change vs veh, ESF1 / Fold change vs veh, TMEM50B / RFU, TAOK1 / Fold change vs veh, TAOK1 / RFU, ACBD3 / Fold change vs veh, ACBD3 / RFU, TMA16 / Fold change vs veh, TMA16 / RFU, RWDD3 / Fold change vs veh, RWDD3 / RFU, BCAT1 / Fold change vs veh, BCAT1 / RFU, EDEM3 / Fold change vs veh, EDEM3 / RFU, TMEM33 / Fold change vs veh, TMEM33 / RFU, WDR75 / Fold change vs veh, WDR75 / RFU, AHCTF1 / Fold change vs veh, AHCTF1 / RFU, TFRC / Fold change vs veh, TFRC / RFU, ZDHHC17 / Fold change vs veh, ZDHHC17 / RFU, NOM1 / Fold change vs veh, NOM1 / RFU, ARL8B / Fold change vs veh, ARL8B / RFU, ZBTB11 / Fold change vs veh, ZBTB11 / RFU, TAMM41 / Fold change vs veh, TAMM41 / RFU, KIAA1704 /// LOC100996395 / Fold change vs veh, KIAA1704 /// LOC100996395 / RFU, ING1 / Fold change vs veh, ING1 / RFU, TRMT61B / Fold change vs veh, TRMT61B / RFU, FUBP3 / Fold change vs veh, FUBP3 / RFU, TP53 / Fold change vs veh, TP53 / RFU, TNKS2 / Fold change vs veh, TNKS2 / RFU, ZFP14 / Fold change vs veh, ZFP14 / RFU, ACTR2 / Fold change vs veh, ACTR2 / RFU, PPP3R1 / Fold change vs veh, PPP3R1 / RFU, PIK3R1 / Fold change vs veh, PIK3R1 / RFU, HNRNPA1 / Fold change vs veh, HNRNPA1 / RFU, RNF170 / Fold change vs veh, RNF170 / RFU, ZNF28 / Fold change vs veh, ZNF28 / RFU, RNGTT / Fold change vs veh, RNGTT / RFU, OGT / Fold change vs veh, OGT / RFU, BRD1 / Fold change vs veh, BRD1 / RFU, MARS / Fold change vs veh, MARS / RFU, ZNF655 / Fold change vs veh, ZNF655 / RFU, FAHD1 / Fold change vs veh, FAHD1 / RFU, BDP1 / Fold change vs veh, BDP1 / RFU, LRRCC1 / Fold change vs veh, LRRCC1 / RFU, ARID1A / Fold change vs veh, ARID1A / RFU, ZNF146 / Fold change vs veh, ZNF146 / RFU, ZNF330 / Fold change vs veh, ZNF330 / RFU, GPN3 / Fold change vs veh, GPN3 / RFU, C9orf123 / Fold change vs veh, C9orf123 / RFU, N4BP2L2 / Fold change vs veh, N4BP2L2 / RFU, ARFIP1 / Fold change vs veh, ARFIP1 / RFU, FAM179B / Fold change vs veh, FAM179B / RFU, BCL10 / Fold change vs veh, BCL10 / RFU, UHRF1BP1L / Fold change vs veh, UHRF1BP1L / RFU, BET1 / Fold change vs veh, BET1 / RFU, CNOT2 / Fold change vs veh, CNOT2 / RFU, ZNF268 / Fold change vs veh, ZNF268 / Fold change vs veh, ZNF507 / RFU, DGCR2 / Fold change vs veh, DGCR2 / RFU, WDSUB1 / Fold change vs veh, WDSUB1 / Fold change vs veh, HSP90B1 /// MIR3652 / RFU, ADSS / Fold change vs veh, ADSS / RFU, GK / Fold change vs veh, GK / RFU, ZNF148 / Fold change vs veh, ZNF148 / RFU, TAF9 / Fold change vs veh, TAF9 / RFU, SLC1A5 / Fold change vs veh, SLC1A5 / RFU, SLMO2 / Fold change vs veh, SLMO2 / RFU, ABCC4 / Fold change vs veh, ABCC4 / RFU, LOC101060439 /// RAP1B / Fold change vs veh, LOC101060439 /// RAP1B / RFU, RFX7 / Fold change vs veh, RFX7 / RFU, GTPBP10 / Fold change vs veh, GTPBP10 / RFU, CNEP1R1 / Fold change vs veh, CNEP1R1 / RFU, BIVM-ERCC5 /// ERCC5 / Fold change vs veh, BIVM-ERCC5 /// ERCC5 / RFU, ILF3 / Fold change vs veh, ILF3 / RFU 11762660_at / Fold change /veh 11762660_at / RFU VCAN (11757783_s_at) / Fold change /veh VCAN (11757783_s_at) / RFU DDX43 (11728927_at) / Fold change /veh DDX43 (11728927_at) / RFU KRT8 (11758188_x_at) / Fold change /veh KRT8 (11758188_x_at) / RFU NKD1 (11759106_at) / Fold change /veh NKD1 (11759106_at) / RFU SRD5A1 (11742802_a_at) / Fold change /veh SRD5A1 (11742802_a_at) / RFU TPSAB1 /// TPSB2 (11721975_s_at) / Fold change /veh TPSAB1 /// TPSB2 (11721975_s_at) / RFU GSTM3 (11746129_a_at) / Fold change /veh GSTM3 (11746129_a_at) / RFU IL23R (11737362_x_at) / Fold change /veh IL23R (11737362_x_at) / RFU TMEM51 (11727254_a_at) / Fold change /veh TMEM51 (11727254_a_at) / RFU PIWIL2 (11732686_x_at) / Fold change /veh PIWIL2 (11732686_x_at) / RFU ORM1 (11744905_x_at) / Fold change /veh ORM1 (11744905_x_at) / RFU CCDC152 (11743942_at) / Fold change /veh CCDC152 (11743942_at) / RFU ECM1 (11717891_a_at) / Fold change /veh ECM1 (11717891_a_at) / RFU IL23R (11748794_a_at) / Fold change /veh IL23R (11748794_a_at) / RFU TNFAIP8L3 (11732012_x_at) / Fold change /veh TNFAIP8L3 (11732012_x_at) / RFU MBOAT4 (11741988_at) / Fold change /veh MBOAT4 (11741988_at) / RFU 11764193_at / Fold change /veh 11764193_at / RFU TMEM53 (11763286_at) / Fold change /veh TMEM53 (11763286_at) / RFU MAGEB2 (11727129_at) / Fold change /veh MAGEB2 (11727129_at) / RFU TMEM200A (11744735_a_at) / Fold change /veh TMEM200A (11744735_a_at) / RFU CCDC152 (11751479_a_at) / Fold change /veh CCDC152 (11751479_a_at) / RFU FAM211A (11726209_a_at) / Fold change /veh FAM211A (11726209_a_at) / RFU RGS16 (11746705_a_at) / Fold change /veh RGS16 (11746705_a_at) / RFU VCAN (11755009_s_at) / Fold change /veh VCAN (11755009_s_at) / RFU RHOB (11743442_s_at) / Fold change /veh RHOB (11743442_s_at) / RFU RGS16 (11720943_a_at) / Fold change /veh RGS16 (11720943_a_at) / RFU RGS16 (11720944_at) / Fold change /veh RGS16 (11720944_at) / RFU, VPS4B / Fold change vs veh, VPS4B / RFU, CREB1 / Fold change vs veh, CREB1 / RFU, DNAJC13 / Fold change vs veh, DNAJC13 / RFU, GNAQ / Fold change vs veh, GNAQ / RFU, CDK5R1 / Fold change vs veh, CDK5R1 / RFU, ZRANB3 / Fold change vs veh, ZRANB3 / RFU, CUL4A / Fold change vs veh, CUL4A / RFU, CCNY / Fold change vs veh, CCNY / RFU, UFL1 / Fold change vs veh, UFL1 / RFU, COG3 / Fold change vs veh, COG3 / RFU, DIAPH2 / Fold change vs veh, DIAPH2 / RFU, SKA2 / Fold change vs veh, SKA2 / RFU, AFF3 / Fold change vs veh, AFF3 / RFU, LMF1 / Fold change vs veh, LMF1 / RFU, IPO11 / Fold change vs veh, IPO11 / RFU, DFFB / Fold change vs veh, DFFB / RFU, FOXP1 / Fold change vs veh, FOXP1 / RFU, CARD8 / Fold change vs veh, CARD8 / RFU, STRN3 / Fold change vs veh, STRN3 / RFU, ADK / Fold change vs veh, ADK / RFU, RASSF2 / Fold change vs veh, RASSF2 / RFU, WIPF1 / Fold change vs veh, WIPF1 / RFU, LARP1B / Fold change vs veh, LARP1B / RFU, RASA1 / Fold change vs veh, RASA1 / RFU, RB1 / Fold change vs veh, RB1 / RFU, PPFIA1 / Fold change vs veh, PPFIA1 / RFU, MAT2A / Fold change vs veh, MAT2A / RFU, CCT5 / Fold change vs veh, CCT5 / RFU, WDR92 / Fold change vs veh, WDR92 / RFU, CUX1 / Fold change vs veh, CUX1 / RFU, TTC7A / Fold change vs veh, TTC7A / RFU, TMEM135 / Fold change vs veh, TMEM135 / RFU, DEPTOR / Fold change vs veh, DEPTOR / RFU, CPM / Fold change vs veh, CPM / RFU, DNAJB6 / Fold change vs veh, DNAJB6 / RFU, CACNA2D3 / Fold change vs veh, CACNA2D3 / RFU, DTX4 / Fold change vs veh, DTX4 / RFU, TFCP2 / Fold change vs veh, TFCP2 / RFU, GMCL1 /// GMCL1P1 / Fold change vs veh, GMCL1 /// GMCL1P1 / RFU, AEBP2 / Fold change vs veh, AEBP2 / RFU, SNHG1 /// SNORD22 /// SNORD25 /// SNORD26 /// SNORD27 /// SNORD28 /// SNORD29 /// SNORD31 / Fold change vs veh, SNHG1 /// SNORD22 /// SNORD25 /// SNORD26 /// SNORD27 /// SNORD28 /// SNORD29 /// SNORD31 / Fold change (Aza/veh), C12orf56 (ProbeSet 11735607_a_at) / Fold change (ACY-1035/veh), C12orf56 (ProbeSet 11735607_a_at) / Fold change (Aza/veh), FGFR1OP (ProbeSet 11751329_s_at) / Fold change (ACY-1035/veh), FGFR1OP (ProbeSet 11751329_s_at) / Fold change (Aza/veh), VPS36 (ProbeSet 11739960_a_at) / Fold change (ACY-1035/veh), VPS36 (ProbeSet 11739960_a_at) / RFU SYPL1 (11715823_x_at) / Fold change /veh SYPL1 (11715823_x_at) / RFU IGFBP7 (11715501_s_at) / Fold change /veh IGFBP7 (11715501_s_at) / RFU REEP3 (11722064_at) / Fold change /veh REEP3 (11722064_at) / RFU IGLL1 (11728026_x_at) / Fold change /veh IGLL1 (11728026_x_at): dose or concentration left out as unconfirmed
Settings: ProbeSet 11758397_s_at; LIST B

Question: With `Nc1ncn([C@@H]2O[C@H](CO)[C@@H](O)[C@H]2O)c(=O)n1` [azacitidine] as the compound, how does the “Fold change vs veh, RNF170” value read?
Answer: 1.07
